Results published in patent US11266640B2, “Polycyclic compound acting as IDO inhibitor and/or IDO-HDAC dual inhibitor” (Hangzhou Innogate Pharma Co., Ltd., priority 2017, dated 2022).

These molecules were tested against T1, IDO (Homo sapiens, UniProt P14902) (assay: Hela cell-based IDO inhibitory activity test (IFNγ added)). Conditions: Hela cells with IFNγ, 48 hours incubation, OD 480 nm.
T1 construct: endogenous in cells; host or cells: HeLa cells treated with IFNγ
Procedure: 2. Hela Cell-Based IDO Inhibitory Activity Test Method
The first step: cell plating. Prepare complete medium and mix well. Cell lines that are in good growth state are selected. Remove the cell culture flask from the incubator and check the cell name, media type and cell generation number on the bottle. The medium was discarded, digested with trypsin, and after digestion, the cells were neutralized with serum-containing medium, and the cells were blown to cause the cells to fall off. Pipette the cell suspension into a centrifuge tube and centrifuge at a speed of 800-1000 for 3-5 minutes. Aspirate the cell supernatant from the centrifuge tube. Add an appropriate volume of medium to the tube and gently blister to resuspend the cells. Count using a Vi-Cell XR cytometer. Adjust the cell suspension to the appropriate concentration. The cell suspension was added to a white-well 96-well plate at 80 μl/well according to the schematic below. The second step: preparation and addition of the compound. Compounds were formulated in DMSO at 600 μM and the compounds were diluted in DMSO according to a multiple of the following table to give 6 concentration gradients of the compound. The 200× compound prepared in DMSO was formulated into a 10× dilution solution in proportion to the corresponding cell culture medium. After 24 hours of cell seeding, 10 μL of 10× corresponding compound dilution and 10 μL of 10×IFNγ were added to each well. Incubate for 48 hours in a 37° C. incubator. The third step: detection and analysis. Cell morphology was observed under an inverted microscope. 80 μL of the supernatant was added to a 3894 plate, 10 μL of 6.1 N trichloroacetic acid was added to each well, shaken for 2 minutes, and placed in a 50-degree incubator for 30 minutes. Centrifuge, 2500 rpm for 10 minutes.
Take 70 μL of the supernatant and transfer to a 3635 UV plate, add 70 μL of the reaction solution, and shake for 2 minutes to make the reaction uniform. Use EnSpire (PE) to detect data with an OD of 480 nm. The cell culture plate 3903 was allowed to stand at room temperature for 30 minutes. 100 μL/well of the cell activity detecting reagent was added to the culture plate. Mix on a shaker for 2 minutes to induce cell lysis. The 96-well plate was allowed to stand at room temperature for 10 minutes to stabilize the luminescence signal. Paste the white base film on the bottom of the plate and tested with Flexstation3 plate (the relevant setting is: Illumination, integration time 500 ms). Record the experimental results obtained from the analysis.
The IC50 value is expressed in the following manner: […]

T1 sequence (P14902 whole entry): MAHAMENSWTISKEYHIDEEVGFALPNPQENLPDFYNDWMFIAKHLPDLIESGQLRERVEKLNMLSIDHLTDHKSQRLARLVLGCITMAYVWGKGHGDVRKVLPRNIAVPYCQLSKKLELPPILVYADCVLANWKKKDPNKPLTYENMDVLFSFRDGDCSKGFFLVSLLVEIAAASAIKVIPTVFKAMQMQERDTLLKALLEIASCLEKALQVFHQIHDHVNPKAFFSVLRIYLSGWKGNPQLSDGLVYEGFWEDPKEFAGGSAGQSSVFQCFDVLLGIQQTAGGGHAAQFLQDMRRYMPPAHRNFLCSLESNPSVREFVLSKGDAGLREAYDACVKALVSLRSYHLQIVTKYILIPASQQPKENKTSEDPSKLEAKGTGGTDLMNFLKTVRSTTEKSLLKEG

| Structure (SMILES) | IC50 [nM] |
| --- | --- |
| O=C(C[C@@H]1C[C@@H]2CC(c3ccnc4ccc(F)cc34)=C[C@@H]2C1)Nc1ccc(Cl)nc1 (racemic) [Compound 62] | ≤ 5 |
| N#Cc1ccc(NC(=O)C[C@@H]2C[C@@H]3CC(c4ccnc5ccc(F)cc45)=C[C@@H]3C2)nc1 (racemic) [Compound 69] | ≤ 5 |
| N#Cc1ccc(NC(=O)C[C@@H]2C[C@@H]3CC(c4ccnc5ccc(F)cc45)=C[C@@H]3C2)cn1 (relative stereo) [Compound 101] | 5 to 25 |
| C[C@@H](C(=O)Nc1ccc(Cl)cn1)[C@H]1C[C@H]2CC(c3ccnc4ccc(F)cc34)C[C@H]2C1 (single isomer, unassigned) [Compound 26A] | ≤ 5 |
| C[C@H](C(=O)Nc1ccc(Cl)cn1)[C@H]1C[C@H]2CC(c3ccnc4ccc(F)cc34)C[C@H]2C1 (single isomer, unassigned) [Compound 26B] | ≤ 5 |
| O=C(Nc1ccc(Cl)cn1)C1C[C@@H]2C[C@H](c3ccnc4ccc(F)cc34)C[C@@H]2C1 (single isomer, unassigned) [Compound 107] | > 100 |
| O=C(Nc1ccc(Cl)cn1)C1C[C@@H]2C[C@H](c3ccnc4ccc(F)cc34)C[C@@H]2C1 (single isomer, unassigned) [Compound 108] | 5 to 25 |
| CC(C(=O)NC1CCOCC1)[C@H]1C[C@H]2C[C@@H](c3ccnc4ccc(F)cc34)C[C@H]2C1 (some centres unmarked) [Compound 3] | > 100 |
| COC(=O)c1ccc(NC(=O)C(C)[C@H]2C[C@H]3C[C@@H](c4ccnc5ccc(F)cc45)C[C@H]3C2)cc1 (some centres unmarked) [Compound 8] | 5 to 25 |
| O=C(C[C@@H]1C[C@@H]2C[C@H](c3ccnc4ccc(F)cc34)C[C@@H]2C1)Nc1ccc2c(c1)OCC1COCCN21 (some centres unmarked) [Compound 13] | > 100 |
| O=C(C[C@H]1C[C@H]2CC(c3ccnc4ccc(F)cc34)C[C@H]2C1)Nc1ccc2[nH]ncc2c1 (some centres unmarked) [Compound 14] | > 100 |
| Cn1ncc2cc(NC(=O)C[C@H]3C[C@H]4CC(c5ccnc6ccc(F)cc56)C[C@H]4C3)ccc21 (some centres unmarked) [Compound 15] | > 100 |
| O=C(C[C@H]1C[C@H]2CC(c3ccnc4ccc(F)cc34)C[C@H]2C1)Nc1ccc2c(c1)OC(F)(F)O2 (some centres unmarked) [Compound 16] | > 100 |
| O=C(C[C@H]1C[C@H]2CC(c3ccnc4ccc(F)cc34)C[C@H]2C1)Nc1ccc(Cl)cn1 (some centres unmarked) [Compound 17] | 5 to 25 |
| O=C(C[C@H]1C[C@H]2CC(c3ccnc4ccc(F)cc34)C[C@H]2C1)Nc1ccc(Cl)nc1 (some centres unmarked) [Compound 18] | ≤ 5 |
| C#Cc1ccc(NC(=O)C[C@H]2C[C@H]3CC(c4ccnc5ccc(F)cc45)C[C@H]3C2)cc1 (some centres unmarked) [Compound 19] | ≤ 5 |
| C#Cc1ccc(NC(=O)C[C@@H]2C[C@H]3CC(c4ccnc5ccc(F)cc45)C[C@H]3C2)cc1 (some centres unmarked) [Compound 20] | ≤ 5 |
| O=C(C[C@@H]1C[C@H]2CC(c3ccnc4ccc(F)cc34)C[C@H]2C1)Nc1ccc(Cl)cn1 (some centres unmarked) [Compound 21] | 5 to 25 |
| N#Cc1ccc(NC(=O)C[C@@H]2C[C@H]3CC(c4ccnc5ccc(F)cc45)C[C@H]3C2)cc1 (some centres unmarked) [Compound 23] | ≤ 5 |

| Structure (SMILES) | IC50 [nM] |
| --- | --- |
| C#Cc1ccc(NC(=O)C[C@@H]2C[C@H]3CC(c4ccnc5ccc(F)cc45)C[C@H]3C2)cn1 (some centres unmarked) [Compound 24] | ≤ 5 |
| C#Cc1ccc(NC(=O)C[C@@H]2C[C@H]3CC(c4ccnc5ccc(F)cc45)C[C@H]3C2)nc1 (some centres unmarked) [Compound 25] | ≤ 5 |
| CC(C(=O)Nc1ccc(O)nc1)[C@H]1C[C@H]2C[C@@H](c3ccnc4ccc(F)cc34)C[C@H]2C1 (some centres unmarked) [Compound 28] | > 100 |
| CC(C(=O)Nc1ccc(Cl)nn1)[C@H]1C[C@H]2C[C@@H](c3ccnc4ccc(F)cc34)C[C@H]2C1 (some centres unmarked) [Compound 29] | 25 to 100 |
| CC(C(=O)Nc1cnc(N)nc1)[C@H]1C[C@H]2C[C@@H](c3ccnc4ccc(F)cc34)C[C@H]2C1 (some centres unmarked) [Compound 30] | > 100 |
| CC(C(=O)Nc1nncs1)[C@H]1C[C@H]2C[C@@H](c3ccnc4ccc(F)cc34)C[C@H]2C1 (some centres unmarked) [Compound 31] | > 100 |
| CC(C(=O)Nc1ccc(-c2cnn(C3CC3)c2)nc1)[C@H]1C[C@H]2C[C@@H](c3ccnc4ccc(F)cc34)C[C@H]2C1 (some centres unmarked) [Compound 32] | > 100 |
| CC(C(=O)Nc1ccc(F)c(Br)c1)[C@H]1C[C@H]2C[C@@H](c3ccnc4ccc(F)cc34)C[C@H]2C1 (some centres unmarked) [Compound 33] | 25 to 100 |
| CC(C(=O)Nc1cncc(Cl)c1)[C@H]1C[C@H]2C[C@@H](c3ccnc4ccc(F)cc34)C[C@H]2C1 (some centres unmarked) [Compound 35] | 5 to 25 |
| CC(C(=O)Nc1ccc(C#N)cc1)[C@H]1C[C@H]2C[C@@H](c3ccnc4ccc(F)cc34)C[C@H]2C1 (some centres unmarked) [Compound 36] | ≤ 5 |
| C#Cc1ccc(NC(=O)C(C)[C@H]2C[C@H]3C[C@@H](c4ccnc5ccc(F)cc45)C[C@H]3C2)cn1 (some centres unmarked) [Compound 37] | ≤ 5 |
| CC(C(=O)Nc1ccc(Cl)nc1)C1=C[C@H]2C[C@@H](c3ccnc4ccc(F)cc34)C[C@H]2C1 (some centres unmarked) [Compound 39] | ≤ 5 |
| CC(C(=O)Nc1ccc(Cl)cc1)[C@H]1C[C@]2(C)C[C@H](c3ccnc4ccc(F)cc34)C[C@]2(C)C1 (some centres unmarked) [Compound 41] | 5 to 25 |
| CC(C(=O)Nc1ccc(Cl)nc1)[C@H]1C[C@]2(C)C[C@H](c3ccnc4ccc(F)cc34)C[C@]2(C)C1 (some centres unmarked) [Compound 43] | 25 to 100 |
| CC(C(=O)Nc1ccc(Cl)cc1)N1C[C@H]2C[C@@H](c3ccnc4ccc(F)cc34)C[C@H]2C1 (some centres unmarked) [Compound 44] | ≤ 5 |
| O=C(CN1C[C@H]2C[C@@H](c3ccnc4ccc(F)cc34)C[C@H]2C1)Nc1ccc(Cl)cc1 [Compound 46] | 25 to 100 |
| O=C(Nc1ccc(Cl)cc1)C(=O)N1C[C@H]2C[C@@H](c3ccnc4ccc(F)cc34)C[C@H]2C1 [Compound 47] | 25 to 100 |
| O=C(Nc1ccc(Cl)cc1)N1C[C@H]2C[C@@H](c3ccnc4ccc(F)cc34)C[C@H]2C1 [Compound 48] | > 100 |
| O=C(C[C@@H]1C[C@@H]2C[C@@]3(c4ccnc5ccc(F)cc45)O[C@H]3[C@@H]2C1)Nc1ccc(Cl)cc1 [Compound 49] | 5 to 25 |

| Structure (SMILES) | IC50 [nM] |
| --- | --- |
| O=C(C[C@@H]1C[C@@H]2C[C@@H](N3CCCc4ccccc43)C[C@@H]2C1)Nc1ccc(Cl)cc1 [Compound 52] | > 100 |
| O=C(C[C@@H]1C[C@@H]2CC(c3ccncc3F)=C[C@@H]2C1)Nc1ccc(Cl)cc1 [Compound 53] | > 100 |
| O=C(C[C@H]1C[C@@H]2CC(c3ccncc3F)=C[C@@H]2C1)Nc1ccc(Cl)cc1 [Compound 54] | > 100 |
| Cn1nc(C2=C[C@@H]3C[C@H](CC(=O)Nc4ccc(Cl)cc4)C[C@@H]3C2)c2ccccc21 [Compound 55] | > 100 |
| O=C(Nc1ccc(Cl)cc1)C1CC12CCC(c1ccnc3ccc(F)cc13)CC2 (centres unmarked) [Compound 56] | 5 to 25 |
| O=C(C[C@]1(O)C[C@H]2C[C@@H](c3ccnc4ccc(F)cc34)C[C@H]2C1)Nc1ccc(Cl)cc1 [Compound 58] | 5 to 25 |
| O=C(C[C@@]1(F)C[C@H]2C[C@@H](c3ccnc4ccc(F)cc34)C[C@H]2C1)Nc1ccc(Cl)cc1 [Compound 59] | 5 to 25 |
| CC(C)(C(=O)Nc1ccc(Cl)cc1)[C@H]1C[C@H]2C[C@@H](c3ccnc4ccc(F)cc34)C[C@H]2C1 [Compound 60] | ≤ 5 |
| O=C(C[C@@H]1C[C@@H]2CC(c3ccnc4ccc(F)cc34)=C[C@@H]2C1)Nc1ccc(Cl)cn1 [Compound 61] | 5 to 25 |
| C#Cc1ccc(NC(=O)C[C@@H]2C[C@@H]3CC(c4ccnc5ccc(F)cc45)=C[C@@H]3C2)nc1 [Compound 63] | ≤ 5 |
| C#Cc1ccc(NC(=O)C[C@@H]2C[C@@H]3CC(c4ccnc5ccc(F)cc45)=C[C@@H]3C2)cn1 [Compound 64] | ≤ 5 |
| C#Cc1ccc(NC(=O)C[C@H]2C[C@@H]3CC(c4ccnc5ccc(F)cc45)=C[C@@H]3C2)nc1 [Compound 65] | 5 to 25 |
| C#Cc1ccc(NC(=O)C[C@@H]2C[C@@H]3C[C@H](c4ccnc5ccc(F)cc45)C[C@@H]3C2)cn1 [Compound 66] | ≤ 5 |
| N#Cc1ccc(NC(=O)C[C@H]2C[C@@H]3C[C@H](c4ccnc5ccc(F)cc45)C[C@@H]3C2)nc1 [Compound 70] | ≤ 5 |
| N#Cc1ccc(NC(=O)C[C@H]2C[C@@H]3C[C@H](c4ccnc5ccc(F)cc45)C[C@@H]3C2)cn1 [Compound 71] | 5 to 25 |
| C#Cc1ccc(NC(=O)[C@H](C)[C@@H]2C[C@H]3CC(c4ccnc5ccc(F)cc45)C[C@H]3C2)nc1 (some centres unmarked) [Compound 75] | 5 to 25 |
| CC(C(=O)Nc1ccc(I)cn1)C1C[C@H]2CC(c3ccnc4ccc(F)cc34)C[C@H]2C1 (some centres unmarked) [Compound 76] | ≤ 5 |
| CC(C(=O)Nc1ccc(C#CC(C)(C)O)cn1)[C@H]1C[C@H]2C[C@@H](c3ccnc4ccc(F)cc34)C[C@H]2C1 (some centres unmarked) [Compound 77] | ≤ 5 |
